# According to publication PMC6112376, “Comprehensive Analyses and Prioritization of Tox21 10K Chemicals Affecting Mitochondrial Function by in-Depth Mechanistic Studies” (Environmental Health Perspectives, 2018):
# Like-named read-outs stand apart in the source and are kept apart here.
# Assays:
# hNSC = experiment: MMP assay in human neural stem cells (hNSC); type: cell-based; conditions: Homo sapiens, Neural stem cell, read-out: hNSC IC50 (MMP)
# HepG2 cells [1] = experiment: ROS-Glo hydrogen peroxide (ROS) assay; type: cell-based, human
# HepG2 cells [2] = experiment: Intracellular ATP content (cell viability) assay; type: cell-based, human; conditions: for IC50: Homo sapiens, HepG2, 40 h
# [3] = test system: p53 (p53-bla HCT-116 cells); experiment: p53 β-lactamase reporter gene assay; type: cell-based, human; conditions: 16 h incubation, mean±SD of three experiments
# [4] = test system: Nrf2/ARE (ARE-bla HepG2 cells); experiment: ARE β-lactamase reporter gene assay; type: cell-based, human; conditions: Homo sapiens, HepG2; 16 h incubation; mean±SD of three experiments; read-out: ARE (HepG2) EC50
# [5] = test system: isolated rat liver mitochondria; experiment: Oxygen consumption, Clark-type oxygen electrode; type: biochemical
# [6] = test system: HeLa cells expressing YFP-Parkin; experiment: Parkin translocation assay; type: cell-based, human
# rat primary hepatocytes [7] = test system: rat primary hepatocytes
# HepG2 cells [8] = experiment: cells; conditions: Homo sapiens
# [9] = test system: Caenorhabditis elegans strain PE255; experiment: In vivo C. elegans ATP status assay
# rat primary hepatocytes [10] = experiment: MMP assay in rat primary hepatocytes; conditions: for IC50: Rattus norvegicus, Hepatocyte
# [11] = test system: Caenorhabditis elegans (Bristol N2); experiment: C. elegans larval development and growth assay
# HepG2 cells [12] = conditions: 10 mM galactose, no glucose; 1 h treatment; mean±SD of three experiments
# HepG2 cells [13] = conditions: cited from earlier work
# [14] = HepG2, 1 h, read-out: HepG2 IC50 Glucose (MMP)
# [15] = 1 h, read-out: Rat hepatocytes IC50 (MMP)
structure (smiles),measurement,setting,value
CCC(C)c1cc([N+](=O)[O-])cc([N+](=O)[O-])c1O (stereo not drawn) [Dinoseb],IC50,hNSC; 1 h,22.3 µM
same,EC50,"HepG2 cells [1]; Homo sapiens, HepG2, 2 h, read-out: ROS (HepG2) EC50",27.6 µM
same,IC50,"HepG2 cells [2]; read-out: ATP (HepG2, galactose) IC50",32.6 µM
same,IC50,"HepG2 cells [2]; read-out: ATP (HepG2, glucose) IC50",36.8 µM
same,EC50,[3]; Homo sapiens,2.63 ± 1.78 µM
same,EC50,[4],0.76 ± 0.13 µM
same,Potential Mechanism,[5],"Uncoupler at low concentrations (0.032-0.16 µM), and Uncoupler + inhibitor at high concentrations (0.8-100 µM)"
same,"I-ADP, % of control (O2 consumption rate)",[5]; 0.0064 µM,89 (38.7) % of control
same,"I-sub, % of control (O2 consumption rate)",[5]; 0.0064 µM,118 (15.5) % of control
same,"II-ADP, % of control (O2 consumption rate)",[5]; 0.0064 µM,98 (66.3) % of control
same,"II-sub, % of control (O2 consumption rate)",[5]; 0.0064 µM,122 (25.5) % of control
same,"I-ADP, % of control (O2 consumption rate)",[5]; 0.032 µM,97 (42.2) % of control
same,"I-sub, % of control (O2 consumption rate)",[5]; 0.032 µM,131 (17.2) % of control
same,"II-ADP, % of control (O2 consumption rate)",[5]; 0.032 µM,92 (62.6) % of control
same,"II-sub, % of control (O2 consumption rate)",[5]; 0.032 µM,137 (28.6) % of control
same,"I-ADP, % of control (O2 consumption rate)",[5]; 0.16 µM,106 (46.2) % of control
same,"I-sub, % of control (O2 consumption rate)",[5]; 0.16 µM,181 (23.7) % of control
same,"II-ADP, % of control (O2 consumption rate)",[5]; 0.16 µM,98 (66.1) % of control
same,"II-sub, % of control (O2 consumption rate)",[5]; 0.16 µM,199 (41.5) % of control
same,"I-ADP, % of control (O2 consumption rate)",[5]; 0.8 µM,138 (59.9) % of control
same,"I-sub, % of control (O2 consumption rate)",[5]; 0.8 µM,423 (55.4) % of control
same,"II-ADP, % of control (O2 consumption rate)",[5]; 0.8 µM,59 (40.0) % of control
same,"II-sub, % of control (O2 consumption rate)",[5]; 0.8 µM,193 (40.3) % of control
same,"I-ADP, % of control (O2 consumption rate)",[5]; 4 µM,111 (48.1) % of control
same,"I-sub, % of control (O2 consumption rate)",[5]; 4 µM,347 (45.5) % of control
same,"II-ADP, % of control (O2 consumption rate)",[5]; 4 µM,28 (19.1) % of control
same,"II-sub, % of control (O2 consumption rate)",[5]; 4 µM,96 (20.0) % of control
same,"I-ADP, % of control (O2 consumption rate)",[5]; 20 µM,70 (30.6) % of control
same,"I-sub, % of control (O2 consumption rate)",[5]; 20 µM,242 (31.7) % of control
same,"II-ADP, % of control (O2 consumption rate)",[5]; 20 µM,18 (12.1) % of control
same,"II-sub, % of control (O2 consumption rate)",[5]; 20 µM,64 (13.3) % of control
same,"I-ADP, % of control (O2 consumption rate)",[5]; 100 µM,13 (6.5) % of control
same,"I-sub, % of control (O2 consumption rate)",[5]; 100 µM,33 (7.1) % of control
same,"II-ADP, % of control (O2 consumption rate)",[5]; 100 µM,12 (6.9) % of control
same,"II-sub, % of control (O2 consumption rate)",[5]; 100 µM,22 (7.8) % of control
same,Parkin recruitment,[6],Active
same,Rat hepatocytes (efficacy) (MMP),rat primary hepatocytes [7],4.50±0.81 ( −130±39.0 ) %
same,IC50,"HepG2 cells [8]; HepG2, 1 h, read-out: HepG2 IC50 Galactose (MMP)",16.5 µM
same,IC50,HepG2 cells [8]; [14],12.4 µM
same,LUM: mean difference in luminescence (ATP content) relative to plate controls,[9]; 0.5 µM,0.1603
same,LUM: mean difference in luminescence (ATP content) relative to plate controls,[9]; 1 µM,0.2694
same,LUM: mean difference in luminescence (ATP content) relative to plate controls,[9]; 5 µM,0.2298
same,LUM: mean difference in luminescence (ATP content) relative to plate controls,[9]; 10 µM,0.4579
same,LUM: mean difference in luminescence (ATP content) relative to plate controls,[9]; 25 µM,0.5745
same,LUM: mean difference in luminescence (ATP content) relative to plate controls,[9]; 50 µM,0.9424
same,LUM: mean difference in luminescence (ATP content) relative to plate controls,[9]; 75 µM,1.122
same,LUM: mean difference in luminescence (ATP content) relative to plate controls,[9]; 100 µM,1.3353
same,minimal effective concentration,"[9]; Caenorhabditis elegans, read-out: LEC LUM: lowest effect concentration for luminescence, a measure of nematode ATP content",50 µM
same,IC50,rat primary hepatocytes [10]; [15],4.5 µM
same,EXT: mean difference in nematode size relative to plate controls,[11]; 0.5 µM,-0.01247
same,EXT: mean difference in nematode size relative to plate controls,[11]; 1 µM,-0.02122
same,EXT: mean difference in nematode size relative to plate controls,[11]; 5 µM,-0.00308
same,EXT: mean difference in nematode size relative to plate controls,[11]; 10 µM,0.1196
same,EXT: mean difference in nematode size relative to plate controls,[11]; 25 µM,0.1256
same,EXT: mean difference in nematode size relative to plate controls,[11]; 50 µM,0.4169
same,EXT: mean difference in nematode size relative to plate controls,[11]; 75 µM,0.7162
same,EXT: mean difference in nematode size relative to plate controls,[11]; 100 µM,0.9301
same,minimal effective concentration,"[11]; Caenorhabditis elegans, read-out: LEC EXT: lowest effect concentration for extinction, a measure of nematode size",50 µM
O=C(O)c1cc(O)c2c(c1)C(=O)c1cccc(O)c1C2=O [Rhein],IC50,"hNSC; 1 h treatment, fresh re-sourced stocks, mean±SD of three experiments",10.3 ± 3.4 µM
same,ROS (HepG2) EC50,"HepG2 cells [1]; 2 h treatment, mean±SD of three experiments",Inactive
same,"ATP (HepG2, glucose) IC50","HepG2 cells [2]; 5 mM glucose, 40 h treatment, mean±SD of three experiments",Inactive
same,"ATP (HepG2, galactose) IC50","HepG2 cells [2]; 10 mM galactose, 40 h treatment, mean±SD of three experiments",Inactive
same,p53 (HCT-116) EC50,[3],Inactive
same,EC50,[4],15.4 ± 8.38 µM
same,"I-ADP, % of control (O2 consumption rate)","[5]; 4 µM, glutamate/malate driven state 3 respiration, isolated rat liver mitochondria",90 (49.1) % of control
same,"I-sub, % of control (O2 consumption rate)","[5]; 4 µM, glutamate/malate driven state 4 respiration, isolated rat liver mitochondria",105 (13.7) % of control
same,"II-ADP, % of control (O2 consumption rate)","[5]; 4 µM, succinate-driven state 3 respiration, isolated rat liver mitochondria",89 (78.7) % of control
same,"II-sub, % of control (O2 consumption rate)","[5]; 4 µM, succinate-driven state 4 respiration, isolated rat liver mitochondria",103 (25.4) % of control
same,"I-ADP, % of control (O2 consumption rate)","[5]; 20 µM, glutamate/malate driven state 3 respiration, isolated rat liver mitochondria",87 (47.4) % of control
same,"I-sub, % of control (O2 consumption rate)","[5]; 20 µM, glutamate/malate driven state 4 respiration, isolated rat liver mitochondria",127 (16.6) % of control
same,"II-ADP, % of control (O2 consumption rate)","[5]; 20 µM, succinate-driven state 3 respiration, isolated rat liver mitochondria",87 (76.7) % of control
same,"II-sub, % of control (O2 consumption rate)","[5]; 20 µM, succinate-driven state 4 respiration, isolated rat liver mitochondria",128 (31.4) % of control
same,Potential Mechanism,"[5]; mitochondrial respiration in isolated rat liver mitochondria, Clark type oxygen electrode, over tested concentrations",Uncoupler
same,Parkin recruitment,"[6]; HeLa cells stably expressing YFP-Parkin, treated for 2 h",Inactive
same,HepG2 IC50 Galactose (MMP),HepG2 cells [12],Inactive
same,MMP assays efficacy (%) qHTS-HepG2,HepG2 cells [13],-100±22%
same,IC50,"HepG2 cells [13]; read-out: MMP assays IC50 (µM), qHTS-HepG2",6.06 ± 5.91 µM
same,IC50,HepG2 cells [8]; [14],15.2 ± 1.76 µM
same,IC50,"HepG2 cells [8]; HepG2, read-out: MMP assays IC50 (µM) HepG2",8.91 µM
same,Emax,"HepG2 cells [8]; HepG2, read-out: MMP assays efficacy (%) HepG2",86%
same,LUM: mean difference in luminescence (ATP content) relative to plate controls,[9]; 0.05 µM,-0.02422
same,LUM: mean difference in luminescence (ATP content) relative to plate controls,[9]; 0.1 µM,0.007311
same,LUM: mean difference in luminescence (ATP content) relative to plate controls,[9]; 0.5 µM,0.006998
same,LUM: mean difference in luminescence (ATP content) relative to plate controls,[9]; 1 µM,0.1053
same,LUM: mean difference in luminescence (ATP content) relative to plate controls,[9]; 5 µM,0.1063
same,LUM: mean difference in luminescence (ATP content) relative to plate controls,[9]; 10 µM,0.1127
same,LUM: mean difference in luminescence (ATP content) relative to plate controls,[9]; 25 µM,0.2215
same,LUM: mean difference in luminescence (ATP content) relative to plate controls,[9]; 50 µM,0.2804
same,LUM: mean difference in luminescence (ATP content) relative to plate controls,[9]; 75 µM,0.1816
same,LUM: mean difference in luminescence (ATP content) relative to plate controls,[9]; 100 µM,0.2365
same,Rat hepatocytes (efficacy) (MMP),"rat primary hepatocytes [10]; % of positive control, mean±SD of three experiments",−37.5±6.05%
same,IC50,rat primary hepatocytes [10]; [15],6.76 ± 4.03 µM
same,IC50,rat primary hepatocytes [10]; read-out: MMP assays IC50 (µM) Rat Hepatocytes,11.6 ± 4.85 µM
same,MMP assays efficacy (%) Rat Hepatocytes,"rat primary hepatocytes [10]; rat hepatocytes, mean ± SD of three experiments",-80±28%
same,EXT: mean difference in nematode size relative to plate controls,[11]; 0.5 µM,0.02304
same,EXT: mean difference in nematode size relative to plate controls,[11]; 1 µM,0.01629
same,EXT: mean difference in nematode size relative to plate controls,[11]; 5 µM,0.06956
same,EXT: mean difference in nematode size relative to plate controls,[11]; 10 µM,-0.06339
same,EXT: mean difference in nematode size relative to plate controls,[11]; 25 µM,-0.09625
same,EXT: mean difference in nematode size relative to plate controls,[11]; 50 µM,0.296
same,EXT: mean difference in nematode size relative to plate controls,[11]; 75 µM,0.2342
same,EXT: mean difference in nematode size relative to plate controls,[11]; 100 µM,0.2496
